pIC50: −log10 of the molar value.
What was measured:
[1] = system: HCC70 cells; experiment: Inhibition of cell proliferation (CyQUANT Direct), HCC70; assay type: cell-based, human; details: Homo sapiens, HCC70, 72-hour
Description: (§1) HCC70 and MB453 cells are cell lines derived from human triple negative breast cancer COV318 and COV504 cells are cell lines derived from human ovarian cancer. Representative compounds of the invention were tested at different concentrations (from 4 μM to 126.4 pM; 0.5 log serial dilutions) for their ability to inhibit the proliferation of each of these cell lines. Known CDK inhibitors dinaciclib or N-((1S,3R)-3-((5-chloro-4-(1H-indol-3-yl) pyrimidin-2-yl)amino)cyclohexyl)-5-((E)-4-(dimethylamino)but-2-enamido)picolinamide and triptolide were used as positive controls. Cells were seeded at approximately 2,000 cells/well and grown in ATCC-formulated RPMI-1640 Medium (ATCC 30-2001)+10% FBS. The cells were cultured at 37° C. in a humidified chamber in the presence of 5% CO2. Proliferation assays were conducted over a 72-hour time period. CyQUANT® Direct Cell Proliferation Assay (Life Technologies, Chicago, Ill. USA) was used to assess the anti-proliferative effects of the compounds following manufacturer's directions and utilizing the reagents supplied with the CyQUANT® Direct Cell kit.

[2] = system: COV318 cells; experiment: Inhibition of cell proliferation (CyQUANT Direct), COV318; assay type: cell-based, human; details: Homo sapiens, COV318, 72-hour
Description: as §1

[3] = system: COV504 cells; experiment: Inhibition of cell proliferation (CyQUANT Direct), COV504; assay type: cell-based, human; details: Homo sapiens, COV504, 72-hour
Description: as §1

[4] = system: MB453 cells; experiment: Inhibition of cell proliferation (CyQUANT Direct), MB453; assay type: cell-based, human; details: Homo sapiens, MB453, 72-hour
Description: as §1

[5] = target: CDK2/Cyclin E1 complex (Homo sapiens, UniProt P24941); experiment: CDK2 kinase inhibition assay (Caliper/LabChip EZ Reader)
[6] = target: CDK7/Cyclin H/MAT1 complex (Homo sapiens, UniProt P50613); experiment: CDK7 kinase inhibition assay (Caliper/LabChip EZ Reader)
Description: (§2) Compounds described herein were assayed for inhibition of CDK7, CDK9, CDK12, and CDK2 activity at Biortus Biosciences (Jiangyin, Jiangsu Province, P.R. of China) using kinase assays for each CDK developed with a Caliper/LabChip EZ Reader (Perkin Elmer, Waltham, Mass.).
(§3) Furthermore, the CDK9 inhibition assay used CDK9/Cyclin T1 complex (8 nM) and “5-FAM-CDK9tide” peptide substrate (2 μM, synthesized fluorophore-labeled peptide with the following sequence: 5-FAM-GSRTPMY-NH2 (SEQ ID NO:2) where 5-FAM is defined above and NH2 signifies a C-terminal amide) with 10 mM MgCl2 in the buffer composition listed above. The CDK12 inhibition assay used CDK12 (aa686-1082)/Cyclin K complex (50 nM) and “5-FAM-CDK9tide” (2 μM) as defined above, with 2 mM MgCl2 in the buffer composition above. Additionally, the CDK2 inhibition assay used CDK2/Cyclin E1 complex (0.5 nM) and “5-FAM-CDK7tide” (2 μM; defined above) with 2 mM MgCl2 in the buffer composition above.
(§4) The incubation period at 27° C. for each CDK inhibition assay was chosen such that the fraction of phosphorylated peptide product produced in each assay, relative to the total peptide concentration, was approximately 20% (±5%) for the uninhibited kinase (35 min. for CDK7, 35 min. for CDK2, 3 hr. for CDK12, 15 min. for CDK9).

[7] = target: CDK9/Cyclin T1 complex (Homo sapiens, UniProt P50750); experiment: CDK9 kinase inhibition assay (Caliper/LabChip EZ Reader)
Description: as §2, §3, §4

[8] = target: CDK12 (aa686-1082)/Cyclin K complex (Homo sapiens, UniProt Q9NYV4); experiment: CDK12 kinase inhibition assay (Caliper/LabChip EZ Reader)
CDK12 (aa686-1082)/Cyclin K complex, sequence (Q9NYV4 686-1082): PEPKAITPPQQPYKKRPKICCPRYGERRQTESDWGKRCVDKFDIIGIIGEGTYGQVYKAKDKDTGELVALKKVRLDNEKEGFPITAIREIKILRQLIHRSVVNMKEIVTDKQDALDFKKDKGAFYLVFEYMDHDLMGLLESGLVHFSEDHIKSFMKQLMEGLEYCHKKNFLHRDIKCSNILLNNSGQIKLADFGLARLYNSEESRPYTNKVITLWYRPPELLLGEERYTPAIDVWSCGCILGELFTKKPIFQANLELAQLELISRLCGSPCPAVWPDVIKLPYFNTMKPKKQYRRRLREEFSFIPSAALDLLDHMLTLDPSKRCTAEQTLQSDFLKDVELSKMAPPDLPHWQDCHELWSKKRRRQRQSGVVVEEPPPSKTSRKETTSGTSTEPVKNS
CDK12 (aa686-1082)/Cyclin K complex, sequence (O75909 whole entry partner, the tested form may be a part): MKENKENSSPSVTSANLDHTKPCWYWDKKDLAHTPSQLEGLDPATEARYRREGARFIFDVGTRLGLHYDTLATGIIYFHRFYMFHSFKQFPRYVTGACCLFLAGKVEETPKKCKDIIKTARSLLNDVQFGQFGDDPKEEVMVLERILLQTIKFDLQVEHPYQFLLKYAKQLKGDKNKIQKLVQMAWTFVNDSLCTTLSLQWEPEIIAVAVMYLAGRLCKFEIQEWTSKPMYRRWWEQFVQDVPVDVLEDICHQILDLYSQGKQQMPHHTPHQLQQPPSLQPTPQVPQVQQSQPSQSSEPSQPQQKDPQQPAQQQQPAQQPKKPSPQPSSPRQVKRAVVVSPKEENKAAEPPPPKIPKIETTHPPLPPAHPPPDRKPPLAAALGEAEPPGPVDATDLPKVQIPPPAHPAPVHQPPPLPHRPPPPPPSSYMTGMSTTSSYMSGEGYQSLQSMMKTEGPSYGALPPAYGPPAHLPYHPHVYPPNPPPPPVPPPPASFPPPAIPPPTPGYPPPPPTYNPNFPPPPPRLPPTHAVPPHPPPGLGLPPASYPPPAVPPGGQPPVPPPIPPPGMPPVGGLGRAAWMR
Description: as §2, §3, §4

CDK7/Cyclin H/MAT1 complex, sequence (P50613 whole entry): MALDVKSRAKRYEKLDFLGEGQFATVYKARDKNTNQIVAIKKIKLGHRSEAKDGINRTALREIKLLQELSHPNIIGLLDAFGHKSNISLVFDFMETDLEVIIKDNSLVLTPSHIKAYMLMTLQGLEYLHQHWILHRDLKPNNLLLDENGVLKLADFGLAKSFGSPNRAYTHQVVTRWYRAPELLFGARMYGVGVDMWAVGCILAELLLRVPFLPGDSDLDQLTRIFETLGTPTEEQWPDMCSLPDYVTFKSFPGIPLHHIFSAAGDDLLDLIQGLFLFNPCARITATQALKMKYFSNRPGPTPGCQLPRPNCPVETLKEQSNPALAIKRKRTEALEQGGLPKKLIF
CDK7/Cyclin H/MAT1 complex, sequence (P51946 whole entry partner): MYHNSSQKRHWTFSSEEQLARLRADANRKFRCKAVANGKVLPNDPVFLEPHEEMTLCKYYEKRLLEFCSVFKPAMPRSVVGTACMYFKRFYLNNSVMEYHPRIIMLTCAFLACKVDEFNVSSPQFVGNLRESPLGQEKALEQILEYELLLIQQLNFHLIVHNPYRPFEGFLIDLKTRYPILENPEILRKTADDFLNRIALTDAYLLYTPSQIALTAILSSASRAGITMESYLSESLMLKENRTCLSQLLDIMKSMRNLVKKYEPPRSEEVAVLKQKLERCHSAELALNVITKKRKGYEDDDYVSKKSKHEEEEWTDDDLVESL
CDK7/Cyclin H/MAT1 complex, sequence (P51948 whole entry partner): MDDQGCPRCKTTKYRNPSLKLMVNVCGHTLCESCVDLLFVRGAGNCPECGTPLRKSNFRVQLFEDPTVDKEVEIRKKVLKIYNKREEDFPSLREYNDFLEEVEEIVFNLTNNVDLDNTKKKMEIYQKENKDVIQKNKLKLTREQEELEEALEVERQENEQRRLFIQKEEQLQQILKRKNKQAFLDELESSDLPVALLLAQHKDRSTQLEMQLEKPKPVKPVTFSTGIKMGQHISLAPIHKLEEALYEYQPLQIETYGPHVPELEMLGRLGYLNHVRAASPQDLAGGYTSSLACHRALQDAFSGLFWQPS
CDK9/Cyclin T1 complex, sequence (P50750 whole entry, the tested form may be a part): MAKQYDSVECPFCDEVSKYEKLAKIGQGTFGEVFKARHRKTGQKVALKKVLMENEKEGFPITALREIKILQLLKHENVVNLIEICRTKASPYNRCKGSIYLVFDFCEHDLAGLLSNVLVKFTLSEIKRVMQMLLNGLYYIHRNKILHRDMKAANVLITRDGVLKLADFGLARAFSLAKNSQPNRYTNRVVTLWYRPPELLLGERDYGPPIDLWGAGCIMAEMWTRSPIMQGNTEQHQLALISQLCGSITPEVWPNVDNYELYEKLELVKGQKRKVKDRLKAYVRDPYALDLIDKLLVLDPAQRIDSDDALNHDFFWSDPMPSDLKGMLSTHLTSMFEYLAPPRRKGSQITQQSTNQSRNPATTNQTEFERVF
CDK9/Cyclin T1 complex, sequence (O60563 whole entry partner, the tested form may be a part): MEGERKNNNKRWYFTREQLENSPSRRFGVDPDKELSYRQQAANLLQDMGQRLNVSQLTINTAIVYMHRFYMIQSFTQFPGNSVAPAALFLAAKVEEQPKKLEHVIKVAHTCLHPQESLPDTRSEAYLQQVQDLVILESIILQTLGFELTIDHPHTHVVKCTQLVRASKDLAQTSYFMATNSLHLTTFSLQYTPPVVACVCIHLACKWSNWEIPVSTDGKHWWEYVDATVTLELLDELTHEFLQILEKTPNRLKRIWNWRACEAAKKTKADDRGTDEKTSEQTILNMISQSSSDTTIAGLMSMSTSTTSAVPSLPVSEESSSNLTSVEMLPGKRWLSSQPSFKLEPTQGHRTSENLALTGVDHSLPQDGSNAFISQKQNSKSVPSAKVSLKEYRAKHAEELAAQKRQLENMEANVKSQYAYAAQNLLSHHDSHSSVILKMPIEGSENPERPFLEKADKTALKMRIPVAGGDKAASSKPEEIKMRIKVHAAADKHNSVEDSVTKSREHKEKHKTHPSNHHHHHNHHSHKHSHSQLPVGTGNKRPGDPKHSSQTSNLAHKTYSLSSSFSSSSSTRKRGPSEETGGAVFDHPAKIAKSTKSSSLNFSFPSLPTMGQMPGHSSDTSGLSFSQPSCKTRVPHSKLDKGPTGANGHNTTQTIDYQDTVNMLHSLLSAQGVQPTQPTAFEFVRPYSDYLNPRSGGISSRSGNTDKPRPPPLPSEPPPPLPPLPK

Structure (SMILES) | pIC50 [1] | pIC50 [2] | pIC50 [3] | pIC50 [4] | pIC50 [5] | pIC50 [6] | pIC50 [7] | pIC50 [8]
Cc1noc(C)c1-c1ccc2c(-c3nc(N[C@@H]4CNC[C@H](O)C4)ncc3C(F)(F)F)c[nH]c2c1 [Compound 105, (3R,5S)-5-[[4-[6-(3,5-dimethylisoxazol-4-yl)-1H-indol-3-yl]-5-(trifluoromethyl)pyrimidin-2-yl]amino]piperidin-3-ol] | > 7.00 | 6.00 to 6.30 | 6.30 to 7.00 | 6.30 to 7.00 | < 6.30 | > 7.52 | < 6.30 | < 6.30
CC1(C)CC[C@H](Nc2ncc(C(F)(F)F)c(-c3c[nH]c4cc(-c5nccs5)ccc34)n2)CN1 [Compound 106, (S)—N-(6,6-dimethylpiperidin-3-yl)-4-(6-(thiazol-2-yl)-1H-indol-3-yl)-5-(trifluoromethyl)pyrimidin-2-amine] | > 7.00 | 6.30 to 7.00 | > 7.00 | > 7.00 | < 6.30 | > 7.52 | < 6.30 | < 6.30
O[C@H]1CNC[C@@H](Nc2ncc(C(F)(F)F)c(-c3c[nH]c4cc(-c5nccs5)ccc34)n2)C1 [Compound 107] | 6.30 to 7.00 | 6.30 to 7.00 | 6.30 to 7.00 | 6.30 to 7.00 | < 6.30 | > 7.52 | < 6.30 | < 6.30
FC(F)(F)c1cnc(N[C@H]2CCCNC2)nc1-c1c[nH]c2nc(-c3nccs3)ccc12 [Compound 108] | > 7.00 | > 7.00 | > 7.00 | > 7.00 | < 6.30 | > 7.52 | < 6.30 | < 6.30
CC1(C)CNC[C@@H](Nc2ncc(C(F)(F)F)c(-c3c[nH]c4cc(-c5nccs5)ccc34)n2)C1 [Compound 109] | 6.30 to 7.00 | > 7.00 | > 7.00 | 6.30 to 7.00 | < 6.30 | > 7.52 | < 6.30 | < 6.30
FC(F)(F)c1cnc(N[C@H]2CCCNC2)nc1-c1c[nH]c2cc(-c3ncco3)ccc12 [Compound 110, (S)-4-(6-(oxazol-2-yl)-1H-indol-3-yl)-N-(piperidin-3-yl)-5-(trifluoromethyl)pyrimidin-2-amine] | > 7.00 | 6.30 to 7.00 | > 7.00 | > 7.00 | < 6.30 | > 7.52 | < 6.30 | < 6.30
FC(F)(F)c1cnc(N[C@H]2CCCNC2)nc1-c1c[nH]c2cc(-c3cnco3)ccc12 [Compound 111, (S)-4-(6-(oxazol-5-yl)-1H-indol-3-yl)-N-(piperidin-3-yl)-5-(trifluoromethyl)pyrimidin-2-amine] | 6.30 to 7.00 | 6.30 to 7.00 | > 7.00 | 6.30 to 7.00 | < 6.30 | > 7.52 | < 6.30 | < 6.30
Cc1noc(C)c1-c1ccc2c(-c3nc(N[C@@H]4CNC[C@H](C(=O)N(C)C)C4)ncc3C(F)(F)F)c[nH]c2c1 [Compound 112, (3R,5S)-5-[[4-[6-(3,5-dimethylisoxazol-4-yl)-1H-indol-3-yl]-5-(trifluoromethyl)pyrimidin-2-yl]-amino]-N, N-dimethyl-piperidine-3-carboxamide] | 6.30 to 7.00 | < 6.00 | 6.30 to 7.00 | 6.30 to 7.00 | < 6.30 | > 7.52 | < 6.30 | < 6.30
CNC(=O)[C@H]1CNC[C@@H](Nc2ncc(C(F)(F)F)c(-c3c[nH]c4cc(-c5c(C)noc5C)ccc34)n2)C1 [Compound 113] | 6.00 to 6.30 | < 6.00 | 6.00 to 6.30 | 6.30 to 7.00 | < 6.30 | > 7.52 | < 6.30 | < 6.30
Cc1nocc1-c1ccc2c(-c3nc(N[C@H]4CCCNC4)ncc3C(F)(F)F)c[nH]c2c1 [Compound 114, (S)-4-(6-(3-methylisoxazol-4-yl)-1H-indol-3-yl)-N-(piperidin-3-yl)-5-(trifluoromethyl)pyrimidin-2-amine] | > 7.00 | > 7.00 | > 7.00 | > 7.00 | < 6.30 | > 7.52 | < 6.30 | < 6.30
Cc1noc(C)c1-c1ccc2c(-c3nc(N[C@@H]4CNCC(C)(C)C4)ncc3C(F)(F)F)c[nH]c2n1 [Compound 115] | > 7.00 | > 7.00 | > 7.00 | > 7.00 | 6.30 to 7.00 | > 7.52 | < 6.30 | 6.30 to 7.00
Cc1noc(C)c1-c1ccc2c(-c3nc(N[C@H]4CCC(C)(C)NC4)ncc3C(F)(F)F)c[nH]c2n1 [Compound 116] | > 7.00 | > 7.00 | > 7.00 | > 7.00 | < 6.30 | > 7.52 | < 6.30 | < 6.30
Cc1noc(C)c1-c1ccc2c(-c3nc(N[C@H]4CCCNC4)ncc3C(F)(F)F)n[nH]c2n1 [Compound 118, 4-[6-(3,5-dimethylisoxazol-4-yl)-1H-pyrazolo-[3,4-b]-pyridin-3-yl]-N-[(3S)-3-piperidyl]-5-(trifluoromethyl)pyrimidin-2-amine] | > 7.00 | 6.30 to 7.00 | > 7.00 | > 7.00 | < 6.30 | > 7.52 | < 6.30 | < 6.30
Cc1noc(C)c1-c1ccc2c(-c3nc(N[C@@H]4CNC[C@H](C(=O)N(C)C)C4)ncc3C(F)(F)F)c[nH]c2n1 [Compound 119, (3R,5S)-5-[[4-[6-(3,5-dimethylisoxazol-4-yl)-1H-pyrrolo[2,3-b]pyridin-3-yl]-5-(trifluoromethyl)pyrimidin-2-yl]amino]-N,N-dimethyl-piperidine-3-carboxamide] | > 7.00 | < 6.00 | > 7.00 | > 7.00 | < 6.30 | > 7.52 | < 6.30 | < 6.30
CNC(=O)[C@H]1CNC[C@@H](Nc2ncc(C(F)(F)F)c(-c3c[nH]c4nc(-c5c(C)noc5C)ccc34)n2)C1 [Compound 120] | 6.30 to 7.00 | 6.00 to 6.30 | 6.30 to 7.00 | > 7.00 | < 6.30 | > 7.52 | < 6.30 | < 6.30
Cc1noc(-c2ccc3c(-c4nc(N[C@H]5CCCNC5)ncc4C(F)(F)F)c[nH]c3c2)n1 [Compound 121, 4-[6-(3-methyl-1,2,4-oxadiazol-5-yl)-1H-indol-3-yl]-N-[(3S)-3-piperidyl]-5 (trifluoromethyl)pyrimidin-2-amine] | 6.30 to 7.00 | 6.30 to 7.00 | > 7.00 | > 7.00 | < 6.30 | > 7.52 | < 6.30 | < 6.30
Cn1nnnc1-c1ccc2c(-c3nc(N[C@H]4CCCNC4)ncc3C(F)(F)F)c[nH]c2c1 [Compound 122, 4-[6-(1-methyltetrazol-5-yl)-1Hindol-3-yl]-N-[(3S)-3-piperidyl]-5-(trifluoromethyl)pyrimidin-2-amine] | 6.30 to 7.00 | < 6.00 | > 7.00 | > 7.00 | < 6.30 | > 7.52 | < 6.30 | < 6.30
Cc1nnc(-c2ccc3c(-c4nc(N[C@H]5CCCNC5)ncc4C(F)(F)F)c[nH]c3c2)s1 [Compound 123] | 6.30 to 7.00 | 6.30 to 7.00 | > 7.00 | > 7.00 | < 6.30 | > 7.52 | < 6.30 | < 6.30
Cc1noc(C)c1-c1ccc2c(-c3nc(N[C@H]4CC[C@H](C)NC4)ncc3C(F)(F)F)c[nH]c2n1 [Compound 124, 4-[6-(3,5-dimethylisoxazol-4-yl)-1H-pyrrolo-[2,3-b]-pyridin-3-yl]-N-[(3S,6S)-6-methyl-3-piperidyl]-5-(trifluoromethyl)pyrimidin-2-amine] | > 7.00 | > 7.00 | > 7.00 | > 7.00 | < 6.30 | > 7.52 | < 6.30 | < 6.30
Cc1noc(C)c1-c1ccc2c(-c3nc(N[C@@H]4CC[C@@H](C)NC4)ncc3C(F)(F)F)c[nH]c2n1 [Compound 125, 4-[6-(3,5-dimethylisoxazol-4-yl)-1H-pyrrolo-[2,3-b]-pyridin-3-yl]-N-[(3R,6R)-6-methyl-3-piperidyl]-5-(trifluoromethyl)pyrimidin-2-amine] | 6.30 to 7.00 | 6.30 to 7.00 | > 7.00 | > 7.00 | < 6.30 | > 7.52 | < 6.30 | < 6.30
